In patent publication US20210254056A1, “IDENTIFICATION AND TARGETED MODULATION OF GENE SIGNALING NETWORKS” (CAMP4 THERAPEUTICS CORPORATION, priority 2017, published 2021):
Structures can show the parent of a compound that is named as a salt. Where two headings read alike, the source gives them in different places.

System: hepatocytes
Test: RNA-seq of hepatocytes treated with Phase III failure compounds
Settings: for significant modulation of expression of disease genes: q≤0.05, genes in the value or listed in the block; for significant changes in gene expression: RNA-seq of Table 36, FPKM≥0.5, log 2(fold-change)≥1, q-value≤0.05; for significant modulation of expression of any of the genes analyzed: p≤0.05
Method: RNA-seq was performed to determine the effects of the compounds on hepatocytes.
Significance was determined by the criteria of FPKM≥0.5, a log 2(fold-change)≥1, and a […].

[1] = RNA-seq, Phase III failure compounds, hepatocytes, significance: FPKM≥0.5, log 2(fold-change)≥1, q-value≥0.05 (so in the source)

In the case of COc1cccc2c1C(=O)c1c(O)c3c(c(O)c1C2=O)C[C@@](O)(/C(CO)=N/NC(=O)CCCCCN1C(=O)C=CC1=O)C[C@@H]3O[C@H]1C[C@H](N)[C@H](O)[C@H](C)O1 [INNO-206 (aldoxorubicin), aldoxorubicin], the “Number (#) of genes having significantly changed expression” value was 1944, the “significant modulation of expression of disease genes” value (RNA-seq, hepatocytes) was “significantly (q≤0.05) modulate expression” and the “B2M expression, RNA-seq result” value (gene B2M, hepatocytes) was 0.38. For the same molecule, the “B9D2 expression, RNA-seq result” value (gene B9D2, hepatocytes) was 0.04, the “BAAT expression, RNA-seq result” value (gene BAAT, hepatocytes) was −1.32 and the “BBOX1 expression, RNA-seq result” value (gene BBOX1, hepatocytes) was −1.19. The “BBS10 expression, RNA-seq result” value (gene BBS10, hepatocytes) was −0.06, the “BCHE expression, RNA-seq result” value (gene BCHE, hepatocytes) was −0.69 and the “BCKDHB expression, RNA-seq result” value (gene BCKDHB, hepatocytes) was 0. For the same molecule, the “BCKDK expression, RNA-seq result” value (gene BCKDK, hepatocytes) was −0.91, the “BCO1 expression, RNA-seq result” value (gene BCO1, hepatocytes) was −0.28 and the “BCR expression, RNA-seq result” value (gene BCR, hepatocytes) was −0.83. The “BLNK expression, RNA-seq result” value (gene BLNK, hepatocytes) was 1.32, the “BLOC1S3 expression, RNA-seq result” value (gene BLOC1S3, hepatocytes) was −0.26 and the “BMPR1A expression, RNA-seq result” value (gene BMPR1A, hepatocytes) was −0.33. The “BRAF expression, RNA-seq result” value (gene BRAF, hepatocytes) was −0.34, the “BSCL2 expression, RNA-seq result” value (gene BSCL2, hepatocytes) was 0.84 and the “BTD expression, RNA-seq result” value (gene BTD, hepatocytes) was −0.48. The “C4A expression, RNA-seq result” value (gene C4A, hepatocytes) was 0.4, the “C9 expression, RNA-seq result” value (gene C9, hepatocytes) was 1.1 and the “C10orf10 expression, RNA-seq result” value (gene C10orf10, hepatocytes) was 1.26. The “C10orf11 expression, RNA-seq result” value (gene C10orf11, hepatocytes) was −1.44, the “C15orf41 expression, RNA-seq result” value (gene C15orf41, hepatocytes) was −1.28 and the “CA2 expression, RNA-seq result” value (gene CA2, hepatocytes) was 1.36. The “CA5A expression, RNA-seq result” value (gene CA5A, hepatocytes) was −0.64, the “CA12 expression, RNA-seq result” value (gene CA12, hepatocytes) was 0.43 and the “CAV1 expression, RNA-seq result” value (gene CAV1, hepatocytes) was 0.02. The “CCND1 expression, RNA-seq result” value (gene CCND1, hepatocytes) was 0.26, the “CD46 expression, RNA-seq result” value (gene CD46, hepatocytes) was 1.34 and the “CD81 expression, RNA-seq result” value (gene CD81, hepatocytes) was 0.46. The “CD320 expression, RNA-seq result” value (gene CD320, hepatocytes) was −0.9, the “CDAN1 expression, RNA-seq result” value (gene CDAN1, hepatocytes) was −0.23 and the “CDH1 expression, RNA-seq result” value (gene CDH1, hepatocytes) was −0.12. For the same molecule, the “CEP19 expression, RNA-seq result” value (gene CEP19, hepatocytes) was 0.44, the “CEP83 expression, RNA-seq result” value (gene CEP83, hepatocytes) was −1.24 and the “CEP164 expression, RNA-seq result” value (gene CEP164, hepatocytes) was 1.34. The “CEP290 expression, RNA-seq result” value (gene CEP290, hepatocytes) was −1.26, the “CFB expression, RNA-seq result” value (gene CFB, hepatocytes) was 0.72 and the “CFHR2 expression, RNA-seq result” value (gene CFHR2, hepatocytes) was 1.2. For the same molecule, the “CHRM3 expression, RNA-seq result” value (gene CHRM3, hepatocytes) was −0.08, the “CIDEC expression, RNA-seq result” value (gene CIDEC, hepatocytes) was −0.39 and the “CLDN1 expression, RNA-seq result” value (gene CLDN1, hepatocytes) was −0.93. For the same molecule, the “COG1 expression, RNA-seq result” value (gene COG1, hepatocytes) was 0.38.
For CS(=O)(=O)c1cc(F)cc2c3c(n(Cc4ccc(Cl)cc4)c12)[C@@H](CC(=O)O)CC3 [Laropiprant (tredaptive), Laropiprant], the “significant changes in gene expression” value was “not observed to cause any significant changes in gene expression” and the “significant modulation of expression of any of the genes analyzed” value (RNA-seq, hepatocytes) was “not observed to significantly modulate expression”.
With Cc1ccc2c(c1)c1c(n2CCc2ccc(C)nc2)CCN(C)C1 [Latrepirdine (dihydrochloride) (57), Latrepirdine] the “Number (#) of genes having significantly changed expression” value [1] was 12, the “significant modulation of expression of any of the genes analyzed” value (RNA-seq, hepatocytes) was “not observed to significantly modulate expression” and the “effect on disease gene expression” value (RNA-seq, hepatocytes) was “no effect on any disease gene”.
Cc1ccc2c(c1)c1c(n2CCc2ccc(C)nc2)CCN(C)C1 [Latrepirdine (dihydrochloride) (64), Latrepirdine] was tested, and the “significant changes in gene expression” value was “not observed to cause any significant changes in gene expression”.
In the case of C1=C/COCc2cc(ccc2OCCN2CCCC2)Nc2nccc(n2)-c2cccc(c2)COC/1 [Pacritinib (SB1518), Pacritinib], the “significant modulation of expression of disease genes” value (RNA-seq, hepatocytes) was “significantly (q≤0.05) modulate expression”.
For C1=C/COCc2cc(ccc2OCCN2CCCC2)Nc2nccc(n2)-c2cccc(c2)COC/1 [Pacritinib], the “Number (#) of genes having significantly changed expression” value [1] was 4114.
